What follows are compounds tested against T1, JAK1 kinase (Homo sapiens, UniProt P23458) (assay: In vitro inhibitory activity on JAK1 kinase (ADP-Glo Kinase Assay)). Details: JAK1 kinase 4 nM, 1 mM ATP.
T1 construct: purchased Invitrogen PV4744
Assay type: biochemical
Procedure: Test Example 1: Determination of In Vitro Inhibitory Activity of the Compounds of the Present Invention on JAK1 Kinase Experimental materials: JAK1 kinase (Invitrogen, PV4744), ATP (Promega, V915B), ADP-Glo Kinase Assay (Promega, V9101), IRS1 (Signalchem, 140-58-1000). Sample preparation: The compounds of the present invention and the control product were dissolved in DMSO solvent respectively to formulate into 10 mM initial liquid. The maximum concentration of the compound was 10 μM, 3-fold dilution, 10 concentration gradients, and duplicate wells for each concentration gradient. Experimental processs: 0.1 μL of the compound to be tested was transferred into a 384 reaction plate (PE, 6007290) via Echo and centrifuged at 1000 rpm/min for 1 min. 5 μL JAK1 kinase (final concentration of 4 nM) was transferred into the 384 reaction plate, which was then centrifuged at 1000 rpm/min for 1 min, and incubated at 25° C. for 15 min. 5 μL substrate mixture (1 mM ATP, IRS1 0.05 mg/ml, kinase buffer solution) was transferred into the 384 reaction plate, which was then centrifuged at 1000 rpm/min for 1 min, and incubated at 25° C. for 60 min. 10 μL ADP-Glo was transferred into the 384 reaction plate, which was then centrifuged at 1000 rpm/min for 1 min, and incubated at 25° C. for 40 min. 20 μL test solution was transferred into the 384 reaction plate, which was then centrifuged at 1000 rpm/min for 1 min and incubated at 25° C. for 40 min. RLU (Relative luminescence unit) signal was read by using an Envision multifunctional plate reader. The signal intensity was used to characterize the degree of the kinase activity. […] IC50 value of 0-100 nM is shown as A, IC50 value of 100-300 nM is shown as B, IC50 value of 300-1000 nM is shown as C, and IC50 value which is greater than 1000 nM is shown as D. NT means not tested.

T1 sequence (P23458 866-1154 limits assumed): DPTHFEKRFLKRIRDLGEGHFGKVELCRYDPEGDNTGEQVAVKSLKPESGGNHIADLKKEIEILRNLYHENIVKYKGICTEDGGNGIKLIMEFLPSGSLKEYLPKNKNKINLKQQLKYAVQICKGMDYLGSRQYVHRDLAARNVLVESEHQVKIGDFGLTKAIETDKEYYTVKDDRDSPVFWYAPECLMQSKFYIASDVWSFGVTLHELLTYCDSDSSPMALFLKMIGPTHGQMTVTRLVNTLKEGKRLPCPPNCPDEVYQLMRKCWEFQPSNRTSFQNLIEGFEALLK

SMILES	IC50
Cn1cc(Nc2nccc(C3=CC4CCC(C3)N4C(=O)C(=O)NCC(F)(F)F)n2)cn1 (stereo not shown) [Compound 82, 2-(3-(2-((1-methyl-1H-pyrazol-4-yl)amino)pyrimidin-4-yl)-8-azabicyclo[3.2.1]oct-2-en-8-yl)-2-oxo-N-(2,2,2-trifluoroethyl)acetamide]	300 to 1000 nM
Cn1cc(Nc2nccc(C3=CC4CCC(C3)N4C(=O)C3(C#N)CC3)n2)cn1 (stereo not shown) [Compound 63, 1-(3-(2-((1-methyl-1H-pyrazol-4-yl)amino)pyrimidin-4-yl)-8-azabicyclo[3.2.1]oct-2-ene-8-formyl)cyclopropane-1-carbonitrile]	300 to 1000 nM
Cn1cc(Nc2nccc(C3=CC4CCC(C3)N4C(=O)N3CC(C#N)C3)n2)cn1 (stereo not shown) [Compound 10, 1-(3-(2-((1-methyl-1H-pyrazol-4-yl)amino)pyrimidin-4-yl)-8-azabicyclo[3.2.1]oct-2-ene-8-carbonyl)azetidine-3-nitrile]	> 1000 nM
O=C([C@@H]1CC1(F)F)N1C2C=C(c3ccnc(Nc4cnn(CCO)c4)n3)CC1CC2 (stereo partly drawn) [Compound 40, ((S)-2,2-difluorocyclopropyl)(3-(2-((1-(2-hydroxyethyl)-1H-pyrazol-4-yl)amino)pyrimidin-4-yl)-8-azabicyclo[3.2.1]oct-2-en-8-yl)methanone]	100 to 300 nM
COC1CC(C(=O)N2C3C=C(c4ccnc(Nc5cnn(C)c5)n4)CC2CC3)C1 (stereo not shown) [Compound 80, (3-methoxycyclobutyl)(3-(2-((1-methyl-1H-pyrazol-4-yl)amino)pyrimidin-4-yl)-8-azabicyclo[3.2.1]oct-2-en-8-yl)methanone]	> 1000 nM
Cn1cc(Nc2nccc(C3=CC4CCC(C3)N4C3(CC#N)CN(C(=O)[C@@H]4CC4(F)F)C3)n2)cn1 (stereo partly drawn) [Compound 85, 2-(1-((S)-2,2-difluorocyclopropane-1-carbonyl)-3-(3-(2-((1-methyl-1H-pyrazol-4-yl)amino)pyrimidin-4-yl)-8-azabicyclo[3.2.1]oct-2-en-8-yl)azetidin-3-yl)acetonitrile]	> 1000 nM
Cn1cc(Nc2nccc(C3=CC4CCC(C3)N4C(=O)CC#N)n2)cn1 (stereo not shown) [Compound 61, 3-(3-(2-((1-methyl-1H-pyrazol-4-yl)amino)pyrimidin-4-yl)-8-azabicyclo[3.2.1]oct-2-en-8-yl)-3-oxopropionitrile]	100 to 300 nM
Cn1cc(Nc2nccc(C3=CC4CCC(C3)N4C(=O)C3CCOCC3)n2)cn1 (stereo not shown) [Compound 78]	> 1000 nM
Cn1cc(Nc2nccc(C3=CC4CCC(C3)N4C(=O)C3(C)CC3(F)F)n2)cn1 (stereo not shown) [Compound 48, (2,2-difluoro-1-methylcyclopropyl)(3-(2-((1-methyl-1H-pyrazol-4-yl)amino)pyrimidin-4-yl)-8-azabicyclo[3.2.1]oct-2-en-8-yl)methanone]	> 1000 nM
Cn1cc(Nc2nccc(C3=CC4CCC(C3)N4C(=O)[C@@H]3C[C@H]3C#N)n2)cn1 (stereo partly drawn) [Compound 47, (1R,2R)-2-(3-(2-((1-methyl-1H-pyrazol-4-yl)amino)pyrimidin-4-yl)-8-azabicyclo[3.2.1]oct-2-ene-8-formyl)cyclopropane-1-carbonitrile]	100 to 300 nM
NC(=O)Cn1cc(Nc2nccc(C3=CC4CCC(C3)N4C(=O)[C@@H]3CC3(F)F)n2)cn1 (stereo partly drawn) [Compound 38, 2-(4-((4-(8-((S)-2,2-Difluorocyclopropane-1-formyl)-8-azabicyclo[3.2.1]oct-2-en-3-yl)pyrimidin-2-yl)amino)-1H-pyrazol-1-yl)acetamide]	< 100 nM
CC(C#N)C(=O)N1C2C=C(c3ccnc(Nc4cnn(C)c4)n3)CC1CC2 (stereo not shown) [Compound 62, 2-methyl-3-(3-(2-((1-methyl-1H-pyrazol-4-yl)amino)pyrimidin-4-yl)-8-azabicyclo[3.2.1]oct-2-en-8-yl)-3-oxopropionitrile]	100 to 300 nM
Cn1cc(Nc2nccc(C3=CC4CCC(C3)N4C(=O)C3CCC3C#N)n2)cn1 (stereo not shown) [Compound 77, 2-(3-(2-((1-methyl-1H-pyrazol-4-yl)amino)pyrimidin-4-yl)-8-azabicyclo[3.2.1]oct-2-ene-8-formyl)cyclobutane-1-carbonitrile]	< 100 nM
Cn1cc(Nc2nccc(C3=CC4CCC(C3)N4C(=O)NC3COC3)n2)cn1 (stereo not shown) [Compound 15, 3-(2-((1-methyl-1H-pyrazol-4-yl)amino)pyrimidin-4-yl)-N-(oxetan-3-yl)-8-azabicyclo[3.2.1]oct-2-ene-8-carboxamide]	300 to 1000 nM
Cn1cc(Nc2ncc(Cl)c(C3=C[C@@H]4CC[C@H](C3)N4C(=O)[C@@H]3CC3(F)F)n2)cn1 [Compound 23-a, ((1S,5R)-3-(5-chloro-2-((1-methyl-1H-pyrazol-4-yl)amino)pyrimidin-4-yl)-8-azabicyclo[3.2.1]oct-2-en-8-yl)((S)-2,2-difluorocyclopropyl)methanone]	< 100 nM
Cn1cc(Nc2nccc(C3=CC4CCC(C3)N4C(=O)NC3(C(F)(F)F)CC3)n2)cn1 (stereo not shown) [Compound 33, 3-(2-((1-methyl-1H-pyrazol-4-yl)amino)pyrimidin-4-yl)-N-(1-(trifluoromethyl)cyclopropyl)-8-azabicyclo[3.2.1]oct-2-ene-8-carboxamide]	< 100 nM
Cn1cc(Nc2nccc(C3=CC4CCC(C3)N4C(=O)c3ccc(C(F)(F)F)cc3)n2)cn1 (stereo not shown) [Compound 16, (3-(2-((1-methyl-1H-pyrazol-4-yl)amino)pyrimidin-4-yl)-8-azabicyclo[3.2.1]oct-2-en-8-yl)(4-(trifluoromethyl)phenyl)methanone]	> 1000 nM
Cc1cnc(Nc2cnn(C3COC3)c2)nc1C1=CC2CCC(C1)N2C(=O)NCC(F)(F)F (stereo not shown) [Compound 30, 3-(5-Methyl-2-((1-(oxetan-3-yl)-1H-pyrazol-4-yl)amino)pyrimidin-4-yl)-N-(2,2,2-trifluoroethyl)-8-azabicyclo[3.2.1]oct-2-ene-8-carboxamide]	< 100 nM
CC(C)(O)Cn1cc(Nc2nccc(C3=CC4CCC(C3)N4C(=O)[C@@H]3CC3(F)F)n2)cn1 (stereo partly drawn) [Compound 41, ((S)-2,2-Difluorocyclopropyl)(3-(2-((1-(2-hydroxy-2-methylpropyl)-1H-pyrazol-4-yl)amino)pyrimidin-4-yl)-8-azabicyclo[3.2.1]oct-2-en-8-yl)methanone]	100 to 300 nM
Cc1cnc(Nc2cnn(C)c2)nc1C1=CC2CCC(C1)N2C(=O)[C@@H]1CC1(F)F (stereo partly drawn) [Compound 22, ((S)-2,2-difluorocyclopropyl)(3-(5-methyl-2-((1-methyl-1H-pyrazol-4-yl)amino)pyrimidin-4-yl)-8-azabicyclo[3.2.1]oct-2-en-8-yl)methanone]	< 100 nM
Cn1cc(Nc2nccc(C3=CC4CCC(C3)N4C(=O)C3(C(F)(F)F)CC3)n2)cn1 (stereo not shown) [Compound 52, (3-(2-((1-methyl-1H-pyrazol-4-yl)amino)pyrimidin-4-yl)-8-azabicyclo[3.2.1]oct-2-en-8-yl)(1-(trifluoromethyl)cyclopropyl)methanone]	> 1000 nM
Cn1cc(Nc2nccc(C3=CC4CCC(C3)N4C(=O)c3ccc(C(F)(F)F)cn3)n2)cn1 (stereo not shown) [Compound 17, (3-(2-((1-methyl-1H-pyrazol-4-yl)amino)pyrimidin-4-yl)-8-azabicyclo[3.2.1]oct-2-en-8-yl)(5-(trifluoromethyl)pyridin-2-yl)methanone]	> 1000 nM
Cn1cc(Nc2ncc(C(F)(F)F)c(C3=CC4CCC(C3)N4C(=O)NCC(F)(F)F)n2)cn1 (stereo not shown) [Compound 25, 3-(2-((1-Methyl-1H-pyrazol-4-yl)amino)-5-(trifluoromethyl)pyrimidin-4-yl)-N-(2,2,2-trifluoroethyl)-8-azabicyclo[3.2.1]oct-2-ene-8-carboxamide]	300 to 1000 nM
O=C(NCC(F)(F)F)N1C2C=C(c3nc(Nc4cnn(C(F)F)c4)ncc3F)CC1CC2 (stereo not shown) [Compound 24, 3-(2-((1-(difluoromethyl)-1H-pyrazol-4-yl)amino)-5-fluoropyrimidin-4-yl)-N-(2,2,2-trifluoroethyl)-8-azabicyclo[3.2.1]oct-2-ene-8-carboxamide]	< 100 nM
Cc1cnc(Nc2cnn(CCO)c2)nc1C1=CC2CCC(C1)N2C(=O)NCC(F)(F)F (stereo not shown) [Compound 28, 3-(2-((1-(2-hydroxyethyl)-1H-pyrazol-4-yl)amino)-5-methylpyrimidin-4-yl)-N-(2,2,2-trifluoroethyl)-8-azabicyclo[3.2.1]oct-2-ene-8-carboxamide]	< 100 nM
Cn1cc(Nc2nccc(C3=CC4CCC(C3)N4C(=O)C3CCOC3)n2)cn1 (stereo not shown) [Compound 76, (3-(2-((1-methyl-1H-pyrazol-4-yl)amino)pyrimidin-4-yl)-8-azabicyclo[3.2.1]oct-2-en-8-yl)(tetrahydrofuran-3-yl)methanone]	100 to 300 nM
Cn1cc(Nc2nccc(C3=CC4CCC(C3)N4C(=O)CC3CC(F)(F)C3)n2)cn1 (stereo not shown) [Compound 79, 2-(3,3-difluorocyclobutyl)-1-(3-(2-((1-methyl-1H-pyrazol-4-yl)amino)pyrimidin-4-yl)-8-azabicyclo[3.2.1]oct-2-en-8-yl)-1-acetone]	< 100 nM
Cn1cc(Nc2nccc(C3=CC4CCC(C3)N4C(=O)CC(F)F)n2)cn1 (stereo not shown) [Compound 66, 3,3-difluoro-1-(3-(2-((1-methyl-1H-pyrazol-4-yl)amino)pyrimidin-4-yl)-8-azabicyclo[3.2.1]oct-2-en-8-yl)-1-acetone]	100 to 300 nM

Source: patent US20220348572A1, “BRIDGED HETEROCYCLYL-SUBSTITUTED PYRIMIDINE COMPOUND, PREPARATION METHOD THEREFOR, AND PHARMACEUTICAL USE THEREOF” (The National Institutes of Pharmaceutical R&D Co., Ltd., priority 2019, published 2022)
